In ChEMBL document CHEMBL1201862, “PubChem BioAssay data set” (2004):
Active and inactive are the calls of the source.

Assays:
[1] = Vero E6 cell cytotoxicity, dose response, cytotoxicity control for non-replicating M. tuberculosis project, secondary assay (AID 492998); format: functional, VeroE6; settings: Vero C1008
cells = format: functional
[2] = THP-1 cell cytotoxicity, dose response, cytotoxicity control for non-replicating M. tuberculosis project (AID 489025); format: functional
INS1 = assay: INS-1E survival protection against cytokine death – cell-based, luminescence, retest, dose response (AID 449756); format: functional; settings: Rattus norvegicus;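 also: cell death triggered by IL-1 beta plus TNF-alpha plus IFN-gamma mixture; protective hits raise ATP signal compared with cytokine alone wells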
[3] = HepG2 cell cytotoxicity, dose response, cytotoxicity control for non-replicating M. tuberculosis project (AID 489018); format: functional; settings: Mycobacterium tuberculosis
Cytochrome P450 2C9 = Cytochrome P450 2C9 (Homo sapiens, UniProt P11712); settings: Potency
Chain of Cytochrome P450 2C9 (P11712 whole entry): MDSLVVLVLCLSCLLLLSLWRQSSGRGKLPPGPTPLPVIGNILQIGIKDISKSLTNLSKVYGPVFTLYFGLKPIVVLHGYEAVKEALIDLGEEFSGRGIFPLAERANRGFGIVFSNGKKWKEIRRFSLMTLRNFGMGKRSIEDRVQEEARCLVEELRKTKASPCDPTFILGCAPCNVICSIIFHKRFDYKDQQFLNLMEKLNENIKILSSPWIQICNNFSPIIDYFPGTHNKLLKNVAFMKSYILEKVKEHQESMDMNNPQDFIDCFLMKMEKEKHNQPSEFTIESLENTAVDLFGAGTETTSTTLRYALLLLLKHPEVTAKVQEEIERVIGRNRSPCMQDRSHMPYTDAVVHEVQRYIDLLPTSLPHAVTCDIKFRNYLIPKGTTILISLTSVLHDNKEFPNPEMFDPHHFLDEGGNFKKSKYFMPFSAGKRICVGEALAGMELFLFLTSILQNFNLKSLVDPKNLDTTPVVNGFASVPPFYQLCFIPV

Cytochrome P450 3A4 = Cytochrome P450 3A4 (Homo sapiens, UniProt P08684); settings: Potency;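 also: confirmatory qHTS run detecting inhibitors and substrates of CYP3A4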
Chain of Cytochrome P450 3A4 (P08684 whole entry): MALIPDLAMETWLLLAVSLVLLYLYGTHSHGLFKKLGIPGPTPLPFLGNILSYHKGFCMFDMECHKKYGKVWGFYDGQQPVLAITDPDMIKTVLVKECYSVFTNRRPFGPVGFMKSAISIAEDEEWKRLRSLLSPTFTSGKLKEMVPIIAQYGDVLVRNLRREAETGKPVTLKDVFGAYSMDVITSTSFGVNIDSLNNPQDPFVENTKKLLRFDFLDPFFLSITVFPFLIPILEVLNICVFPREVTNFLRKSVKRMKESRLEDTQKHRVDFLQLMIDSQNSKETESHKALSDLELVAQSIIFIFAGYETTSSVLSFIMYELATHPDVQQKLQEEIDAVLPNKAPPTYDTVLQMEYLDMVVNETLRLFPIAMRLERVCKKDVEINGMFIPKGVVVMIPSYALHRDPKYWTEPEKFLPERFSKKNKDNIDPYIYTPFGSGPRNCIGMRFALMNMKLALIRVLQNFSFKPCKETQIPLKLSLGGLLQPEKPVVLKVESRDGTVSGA

Cytochrome P450 2D6 = Cytochrome P450 2D6 (Homo sapiens, UniProt P10635); assay: qHTS Assay for Inhibitors and Substrates of Cytochrome P450 2D6. [Related pubchem assays: 410 ]; format: ADME; settings: read-out: Potency
Chain of Cytochrome P450 2D6 (P10635 whole entry): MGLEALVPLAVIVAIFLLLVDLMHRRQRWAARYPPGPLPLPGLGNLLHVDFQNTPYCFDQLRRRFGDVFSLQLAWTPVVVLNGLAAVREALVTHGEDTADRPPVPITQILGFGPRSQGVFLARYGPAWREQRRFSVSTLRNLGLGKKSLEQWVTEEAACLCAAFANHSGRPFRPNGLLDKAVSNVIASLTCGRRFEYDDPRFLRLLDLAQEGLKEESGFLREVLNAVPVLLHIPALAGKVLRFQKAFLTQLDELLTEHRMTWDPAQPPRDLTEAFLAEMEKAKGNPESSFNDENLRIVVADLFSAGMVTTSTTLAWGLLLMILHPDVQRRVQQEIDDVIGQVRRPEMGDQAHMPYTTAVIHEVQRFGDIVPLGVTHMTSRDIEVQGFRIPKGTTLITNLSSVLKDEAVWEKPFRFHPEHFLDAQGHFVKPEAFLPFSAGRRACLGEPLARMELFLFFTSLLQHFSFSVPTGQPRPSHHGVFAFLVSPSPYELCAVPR

Streptococcus = assay: GAS UMAA2166 growth inhibition – luminescence, BacTiterGlo, counter-screen for streptokinase expression inhibitor project, dose response (AID 1915); format: functional, organism-based;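 also: potency for reduction of bacterial viability or growth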
[4] = viability of HCT116 lacking mutant beta-catenin – cell-based, human colon tumor, dose response (AID 1045); format: functional;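 also: HCT116 colon tumor cells with beta catenin knocked out; cells exposed to compound for 60 hours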
X-box-binding protein 1 = target: T1, X-box-binding protein 1 (Homo sapiens, UniProt P17861); format: functional, Cricetulus griseus;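 also: confirmatory dose-response counter-screen serving a CHOP assay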
T1 sequence (P17861 whole entry): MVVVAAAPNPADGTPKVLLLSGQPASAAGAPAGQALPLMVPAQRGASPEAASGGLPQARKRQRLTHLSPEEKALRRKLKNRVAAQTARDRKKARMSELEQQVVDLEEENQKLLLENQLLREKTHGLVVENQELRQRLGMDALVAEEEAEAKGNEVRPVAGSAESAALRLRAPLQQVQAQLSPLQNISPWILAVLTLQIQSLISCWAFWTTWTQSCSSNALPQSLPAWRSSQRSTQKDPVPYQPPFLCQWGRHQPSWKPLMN

[5] = viability of PTEN-deleted HCT116 cells – cell-based, HCT116 PTEN knockout, dose response (AID 1047); format: functional;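 also: HCT116 colon tumor cells with PTEN knocked out; cells exposed to compound for 60 hours before readout; potency for loss of cell viability measured by luminescence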
[6] = test system: Streptococcus sp. 'group A'; assay: Streptococcus pyogenes SK(-)GAS viability under kanamycin – luminescence, BacTiterGlo, confirmation, counter-screen for streptokinase expression inhibitor project, dose response (AID 1900); format: functional, organism-based
[7] = Luminescence Cell-Based Dose Retest to Confirm Inhibitors of Cancer Stem Cells. [Related pubchem assays (depositor defined):AID2717, AID2721]; format: functional, Homo sapiens; settings: Homo sapiens
[8] = target: T2, Scavenger receptor class B member 1 (Mus musculus, UniProt Q61009); assay: mouse SR-BI DiI-HDL uptake blockers – ldlA[mSR-BI] cells, fluorescence, cherry pick, dose response (AID 493194); format: functional, cell-based;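 also: cellular uptake of fluorescent DiI-labeled HDL measured as cell fluorescence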
T2 sequence (Q61009 whole entry): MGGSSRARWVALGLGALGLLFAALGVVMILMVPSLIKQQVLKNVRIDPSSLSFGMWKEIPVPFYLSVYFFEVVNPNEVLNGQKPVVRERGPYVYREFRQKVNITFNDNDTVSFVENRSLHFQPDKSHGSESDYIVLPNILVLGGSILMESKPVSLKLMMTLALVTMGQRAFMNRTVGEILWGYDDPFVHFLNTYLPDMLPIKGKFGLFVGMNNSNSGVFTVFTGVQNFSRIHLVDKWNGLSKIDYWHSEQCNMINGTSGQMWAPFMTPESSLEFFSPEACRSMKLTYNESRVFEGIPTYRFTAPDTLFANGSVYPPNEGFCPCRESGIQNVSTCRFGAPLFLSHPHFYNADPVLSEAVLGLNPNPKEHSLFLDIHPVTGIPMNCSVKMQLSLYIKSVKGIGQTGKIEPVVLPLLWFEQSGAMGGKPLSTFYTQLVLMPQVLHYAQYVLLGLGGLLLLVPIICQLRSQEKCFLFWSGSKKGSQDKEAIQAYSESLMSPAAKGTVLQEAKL

[9] = target: Intestinal-type alkaline phosphatase (Homo sapiens, UniProt P09923); assay: Dose Response confirmation of uHTS hits from a small molecule inhibitors of human intestinal alkaline phosphatase via a luminescent assay. [Related pubchem assays (depositor defined):AID2544, AID2574]; format: functional
Chain of Intestinal-type alkaline phosphatase (P09923 whole entry): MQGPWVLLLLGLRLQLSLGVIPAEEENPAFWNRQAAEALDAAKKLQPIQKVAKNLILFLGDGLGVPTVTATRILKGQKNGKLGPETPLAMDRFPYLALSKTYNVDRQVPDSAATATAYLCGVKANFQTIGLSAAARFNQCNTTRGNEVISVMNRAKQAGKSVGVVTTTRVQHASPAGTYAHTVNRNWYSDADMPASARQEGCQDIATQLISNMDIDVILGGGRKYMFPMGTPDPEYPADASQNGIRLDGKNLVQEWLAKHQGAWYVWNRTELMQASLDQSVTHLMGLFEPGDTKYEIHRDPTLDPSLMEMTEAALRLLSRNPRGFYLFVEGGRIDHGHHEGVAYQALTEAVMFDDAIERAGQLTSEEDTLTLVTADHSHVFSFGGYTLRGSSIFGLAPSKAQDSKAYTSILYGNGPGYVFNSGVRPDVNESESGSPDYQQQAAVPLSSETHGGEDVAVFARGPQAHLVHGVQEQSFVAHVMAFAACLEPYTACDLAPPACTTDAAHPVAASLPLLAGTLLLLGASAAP

Estrogen receptor beta = Estrogen receptor beta (Homo sapiens, UniProt Q92731); assay: blockers of SRC-3 recruitment to ERβ – biochemical, ELISA, streptavidin-HRP readout, orthogonal assay, confirmation (AID 1060)
Chain of Estrogen receptor beta (Q92731 whole entry): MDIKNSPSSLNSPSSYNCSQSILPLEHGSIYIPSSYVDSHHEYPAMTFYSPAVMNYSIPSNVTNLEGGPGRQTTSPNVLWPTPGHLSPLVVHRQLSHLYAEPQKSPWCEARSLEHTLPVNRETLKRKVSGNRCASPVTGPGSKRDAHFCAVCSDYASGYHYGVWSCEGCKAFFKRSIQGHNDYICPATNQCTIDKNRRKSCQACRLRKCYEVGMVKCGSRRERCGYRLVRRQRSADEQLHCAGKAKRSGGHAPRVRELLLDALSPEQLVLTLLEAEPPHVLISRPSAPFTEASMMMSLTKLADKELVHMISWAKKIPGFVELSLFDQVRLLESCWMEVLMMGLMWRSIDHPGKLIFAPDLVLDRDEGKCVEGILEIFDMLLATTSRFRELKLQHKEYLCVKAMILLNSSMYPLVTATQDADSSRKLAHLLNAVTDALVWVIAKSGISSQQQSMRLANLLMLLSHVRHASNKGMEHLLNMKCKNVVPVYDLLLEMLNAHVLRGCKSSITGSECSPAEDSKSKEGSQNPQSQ

Bcl-2-like protein 10 = target: T3, Bcl-2-like protein 10 (Homo sapiens, UniProt Q9HD36); assay: Bcl-B/TR3 peptide binding disruption – biochemical, fluorescence polarization, FITC-TR3 peptide, selectivity assay for Bfl-1 inhibitor project, primary screen (AID 748);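 also: fluorescence polarization from a fluorescein-labelled TR3 peptide binding purified Bcl-B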
T3 sequence (Q9HD36 whole entry): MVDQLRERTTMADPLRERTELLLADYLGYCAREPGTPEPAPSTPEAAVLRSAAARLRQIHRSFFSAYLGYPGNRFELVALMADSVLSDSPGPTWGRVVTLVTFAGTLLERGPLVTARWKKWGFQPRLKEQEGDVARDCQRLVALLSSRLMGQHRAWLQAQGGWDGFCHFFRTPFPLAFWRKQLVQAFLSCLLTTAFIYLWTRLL

Question: For `C/C(=N\NC(=O)c1ccccc1OCc1ccc(F)cc1)c1ccccn1`, which CC50 [1] is on record?
Answer: Its CC50 is 2.69 µM (active).

Question: What about the IC50 (cells) of the same molecule?
Answer: The IC50 was 3.02 µM (active).

Question: And the CC50 [2]?
Answer: Its CC50 is 0.765 µM (active).

Question: And the AC50 (INS1)?
Answer: The AC50 was 1.83 µM (active).

Question: And the CC50 [3]?
Answer: Its CC50 is 3.6 µM (active).

Question: For `C=CCc1cccc(C2C(C)CCC3C(=O)N4C(CCC(C)C4c4cccc(CC=C)c4)C(=O)N32)c1` (stereo not given), which AC50 (Cytochrome P450 2C9) is on record?
Answer: Its AC50 is 3.98 µM (inconclusive).

Question: What about the AC50 (Cytochrome P450 3A4) of the same molecule?
Answer: The AC50 was 0.2 µM (inconclusive).

Question: What about the AC50 (Cytochrome P450 2D6) of the same molecule?
Answer: The AC50 was 3.16 µM (inconclusive).

Question: What does the source list for `CCNC(=O)c1c(NC(=O)c2cc(-c3cc(C)ccc3O)[nH]n2)sc2c1CCCC2`?
Answer: EC50 (Streptococcus): 7.09 µM (active); EC50 [4]: 15 µM (active); Absolute IC50 (XBP1) (X-box-binding protein 1): 10 µM; EC50 [5]: 11.3 µM (active); EC50 [6]: 2.5 µM (active); AC50 [7]: 5.2 µM (active)

Question: Which “Absolute IC50 (XBP1)” value (X-box-binding protein 1) does the source give for `O=C(Oc1ccc(O)cc1)C12CC3CC(CC(C3)C1)C2` here?
Answer: Its value is 10 µM.

Question: For `COC(=O)c1[nH]c2cc(OC)ccc2c1NC(=O)c1ccc2c(c1)OCO2`, which AC50 [8] is on record?
Answer: The AC50 was 17.8 µM (active).

Question: Which AC50 [8] does the source give for `CCOc1ccc(NC(=O)CN2CCN(CC(=O)Nc3cc(OC)cc(OC)c3)CC2)cc1` here?
Answer: The AC50 was 0.414 µM (active).

Question: For `O=C(NC1CCCCCC1)c1ccc(-n2cnnc2)cc1`, which IC50 [9] is on record?
Answer: Its IC50 is > 100 µM (inactive).

Question: For `CCN1CCN(c2ccc(NC(=O)c3cccc4ncccc34)cc2)CC1`, which IC50 (Estrogen receptor beta) is on record?
Answer: The IC50 was 0.121 µM (not active).

Question: And the IC50 (Bcl-2-like protein 10)?
Answer: Its IC50 is 50.1 µM (inactive).
